Results from patent US12012404B2, “Pyrimidoheterocyclic compounds and application thereof” (D3 BIO (WUXI) CO., LTD., priority 2020, dated 2024).
Like-named read-outs stand apart in the source and are kept apart here. Values belong to the compound of their own block, whether it stands above or below them.

How the values were obtained:
[1] = In vitro stability in liver microsomes, CD-1 mice; format: in vitro ADME; conditions: CD-1 mice liver microsomes, 0.5 mg/mL
Protocol: Purpose of the assay: Metabolic stabilities of the assay compounds in liver microsomes of CD-1 mice, SD rats, beagle dogs, cynomolgus monkeys, and human were assayed, respectively.
Procedure of the assay: Two 96-well incubation plates were prepared and named T60 incubation plate and NCF60 incubation plate, respectively. 445 μL of microsomal working solutions (liver microsomal protein concentration of 0.56 mg/mL) were added to the T60 incubation plate and the NCF60 incubation plate, respectively, and then the above incubation plates were pre-incubated in a 37° C. water bath for about 10 minutes.
After the pre-incubation, 5 μL of working solutions of the assay sample or the control compound were added to the T60 incubation plate and the NCF60 incubation plate, respectively, and the mixture was mixed well. 50 μL of potassium phosphate buffer was added to each well of the NCF60 incubation plate to initiate the reaction. 180 μL of stop solution (200 ng/mL tolbutamide and 200 ng/mL labetalol in acetonitrile) and 6 uL of NADPH regeneration system working solution were added to the T0 stop plate, and 54 μL of sample was transferred from T60 incubation plate to T0 stop plate (generation of TO sample). The reaction was initiated by adding 44 μL of NADPH regeneration system working solution to each well of the T60 incubation plate. Only 54 μL of microsome working solution, 6 uL of NADPH regeneration system working solution and 180 μL of stop solution were added to the Blank plate. Therefore, in samples of the assay compound or the control compound, the final reaction concentration of compound, testosterone, diclofenac and propafenone was 1 μM, the concentration of liver microsomes was 0.5 mg/mL, and the final reaction concentrations of DMSO and acetonitrile in the reaction system were 0.01% (v/v) and 0.99% (v/v), respectively.
After an appropriate time (e.g., 5, 15, 30, 45 and 60 minutes) of incubation, 180 μL of stop solutions (200 ng/mL tolbutamide and 200 ng/mL labetalol in acetonitrile) were added to the sample wells of each stop plate, respectively. 60 μL of sample was removed from the T60 incubation plate to stop the reaction. All sample plates were shaken well and then centrifuged at 3220×g for 20 minutes. Then 80 μL of supernatant was taken out from each well, and diluted in 240 μL of pure water for liquid chromatography-tandem mass spectrometry analysis. All samples were injected and analyzed by liquid chromatography-tandem mass spectrometry.

[2] = Metabolic stability in hepatocytes, SD rats; format: in vitro ADME
Protocol: (§1) Purpose of the assay: Metabolic stabilities of assay compounds in hepatocytes of CD-1 mice, SD rats, beagle dogs, cynomolgus monkeys, and human were assayed, respectively.
(§2) Procedure of the assay: Several 96-well sample precipitation plates were prepared and named T0, T15, T30, T60, T90, T120, TO-MC, T120-MC and blank substrates, respectively. The recovery medium and incubation medium were taken out in advance and placed in a 37° C. water bath for pre-heating. Cryopreserved hepatocytes were removed from the liquid nitrogen tank and immediately immersed in a 37° C. water bath (approximately 90 seconds). After the cryopreserved hepatocytes had thawed and loosened, they were poured into a centrifuge tube containing 40 mL of recovery medium, and the tube was gently inverted to allow the cells to be resuspended in the recovery medium. The cells were centrifuged at 100×g at room temperature for 5 min, and the supernatant was removed. The hepatocytes were resuspended in an appropriate volume of incubation medium, and the cell viability was calculated by Trypan Blue staining method. 198 μL of hepatocyte suspension (0.51×10^6 cells/mL) was added to the preheated incubation plate. For the culture medium control group, 198 μL of hepatocyte-free incubation medium was added to T0-MC and T120-MC incubation plate. All incubation plates were pre-incubated in a 37° C. incubator for 10 minutes. Then 2 μL of working solutions of the assay sample and the control compound were added, respectively, and the mixture was mixed well. The incubation plate was immediately put into the shaker in the incubator, and the reaction was initiated while starting the timer. For each time point of each compound, 2 duplicate samples were prepared. The incubation conditions were 37° C., saturated humidity, and 5% CO2. In the assay system, the final concentration of the assay sample was 1 μM, the final concentration of the control sample was 3 μM, the final concentration of hepatocytes was 0.5×10^6 cells/mL, and the final concentration of the total organic solvent was 0.96%, of which the final concentration of DMSO was 0.1%. At the end of the incubation for the corresponding time point, the incubation plate was taken out, and 25 μL of a mixture of compound and control compound with cells was added to the sample plate containing 125 μL of stop solution (200 ng/mL tolbutamide and labetalol in acetonitrile). For the Blank sample plate, 25 μL of hepatocyte-free incubation medium was added directly. After sealing, all sample plates were shaken on a shaker at 600 rpm for 10 minutes, and then centrifuged at 3220×g for 20 minutes. Supernatants of the assay sample and the control sample were diluted with ultrapure water at a ratio of 1:3. All samples were mixed well and analyzed by LC/MS/MS.

[3] = Metabolic stability in hepatocytes, beagle dogs; format: in vitro ADME
Protocol: as §1, §2

[4] = Pharmacokinetics by oral administration and intravenous injection in SD rats; format: in vivo; conditions: for AUCu: AUC0-last × PPB(Unbound %); for Peak concentration, Cmax, u: Cmax × PPB(Unbound %); for Cmax: read-out: Peak concentration, Cmax; for Vd: SD, iv, 2 mg/kg
Protocol: 1) Assay on the Pharmacokinetics of the Assay Compounds by Oral Administration and Intravenous Injection in SD Rats
The assay compound was mixed with […] (10% hydroxypropyl-β-cyclodextrin) solution. The mixture was vortexed and sonicated to prepare a 1 mg/mL clear solution, which was filtered through a microporous membrane for later use. Male SD rats aged 7 to 10 weeks were selected, and administered candidate compound solutions intravenously or orally. Whole blood was collected for a certain period of time, and prepared to obtain plasma. Drug concentration was analyzed by LC-MS/MS method, and pharmacokinetic parameters were calculated by Phoenix WinNonlin software (Pharsight, USA).

[5] = tested on: plasma protein of SD rats; assay: Protein binding rate by equilibrium dialysis, SD rats plasma; format: in vitro ADME; conditions: for Protein unbound rate: SD rats plasma, 2 μM, dialysis 4 hours
Protocol: Purpose of the assay: Protein binding rate of the assay compounds in plasma of CD-1 mice, SD rats, beagle dogs, cynomolgus monkeys and human was determined by equilibrium dialysis.
Procedure of the assay: Plasma samples with a compound concentration of 2 μM were prepared using plasma of the above five species, placed in a 96-well equilibrium dialysis device, and dialyzed with phosphate buffer solution at 37±1° C. for 4 hours. Warfarin was used as the control compound in this assay. The concentrations of the assay compounds in plasma and dialysis buffer were determined by LC-MS/MS method.

[6] = intravenous injection, 2.0 mg/kg
[7] = oral, 9.7 mg/kg (8B), 9.8 mg/kg (17)
[8] = male, rat, plasma, oral, 9.7 mg/kg (8B), 9.8 mg/kg (17)

CLint(liver) ([1]; 1 μM): 436.1 mL/min/kg | CLint(mic) ([1]; 1 μM): 110 µL/min/mg | T1/2 ([1]; 1 μM): 0.21 h | CLint(hep) ([2]; 1 μM): 7.5 μL/min/10^6 | CLint(liver) ([2]; 1 μM): 35.0 mL/min/kg | T1/2 ([2]; 1 μM): 3.087 h | CLint(hep) ([3]; 1 μM): <6.4 μL/min/10^6 | CLint(liver) ([3]; 1 μM): <44 mL/min/kg | T1/2 ([3]; 1 μM): >3.613 h | AUC0-last [4, 6]: 0.544 µM·h | Apparent volume of distribution, Vdss [4, 6]: 17.9 L/kg | Clearance rate, CL [4, 6]: 85.2 mL/min/kg | Half-life period, T1/2 [4, 6]: 2.8 h | AUCu [4, 6]: 0.0533 µM·h | Apparent volume of distribution, Vdss, u ([4]; intravenous injection, 2.0 mg/kg, Vdss/PPB(Unbound %)): 203 L/kg | AUC0-last [4, 7]: 1.211 µM·h | Bioavailability F [4, 7]: 44.5% | Time-to-peak, Tmax [4, 7]: 1.5 h | AUCu [4, 7]: 0.119 µM·h | Peak concentration, Cmax, u [4, 7]: 21.3 nM | Cmax [4, 7]: 218 nM | Protein unbound rate [5]: 9.8 | Plasma protein unbound rate PPB (Unbound %) ([5]; SD rats, as listed in PK Table 8): 9.8%
SMILES: C=C(F)C(=O)N1CCN(c2nc(OCC3CCCN3C)nc3c2COC(c2c(F)c(N)cc(C)c2C(F)(F)F)C3)CC1CC#N.Cl (single isomer, unassigned) [Compound 8B hydrochloride]

SMILES: C=C(F)C(=O)N1CCN(c2nc(OC[C@@]34CCCN3C[C@H](F)C4)nc3c2COC(c2c(F)c(N)cc(C)c2C(F)(F)F)C3)C[C@@H]1CC#N (stereo partly drawn) [Compound 17]
CLint(mic) ([1]; 1 μM): 285 µL/min/mg | CLint scaled at 1 μM ([1]; mouse): 1130 mL/min/kg | half-life at 1 μM ([1]; mouse): 4.9 min | CLint(hep) ([2]; 1 μM): 67.4 μL/min/10^6 | half-life at 1 μM ([2]; rat, cryopreserved hepatocytes): 0.343 h | CLint scaled at 1 μM ([2]; rat, cryopreserved hepatocytes, read-out: CLint(liver)): 315 mL/min/kg | CLint(hep) ([3]; 1 μM): 7.6 μL/min/10^6 | half-life at 1 μM ([3]; dog, cryopreserved hepatocytes): 3.04 h | CLint scaled at 1 μM ([3]; dog, cryopreserved hepatocytes, read-out: CLint(liver)): 52.3 mL/min/kg | AUCu [4, 6]: 0.0313 µM·h | Vd ([4]; male, rat, plasma, intravenous injection, 2.0 mg/kg, Vdss/PPB(Unbound %), read-out: Apparent volume of distribution, Vdss, u): 221 L/kg | Vd ([4]; male, rat, plasma, intravenous injection, 2.0 mg/kg, read-out: Apparent volume of distribution, Vdss): 10.6 L/kg | AUC(0-t) ([4]; male, rat, plasma, intravenous injection, 2.0 mg/kg): 0.653 µM·h | clearance ([4]; male, rat, plasma, intravenous injection, 2.0 mg/kg, read-out: Clearance rate, CL): 71.5 mL/min/kg | half-life ([4]; male, rat, plasma, intravenous injection, 2.0 mg/kg, read-out: Half-life period, T1/2 (converted)): 1.9 h | AUC(0-t) [4, 8]: 0.995 µM·h | bioavailability ([4]; male, rat, plasma, oral, 9.7 mg/kg (8B), 9.8 mg/kg (17), read-out: Bioavailability F): 30.5% | Cmax [4, 8]: 220 nM | Tmax ([4]; male, rat, plasma, oral, 9.7 mg/kg (8B), 9.8 mg/kg (17), read-out: Time-to-peak, Tmax): 1.5 h | AUCu [4, 7]: 0.0478 µM·h | Peak concentration, Cmax, u [4, 7]: 10.6 nM | Protein unbound rate [5]: 4.8
